Counter-ions that a name gives are not always drawn. Like-named read-outs stand apart in the source and are kept apart here.

This test has as its system spontaneously hypertensive rats. Description: Determination of antihypertensive activity (blood pressure and heart rate) in anesthetized spontaneously hypertensive rats. Format: in vivo. The settings on record: 10 mg./kg. i.p. in aqueous solution, anesthetized spontaneously hypertensive male rats, average of two or more experiments; for change in vivo at 10 mg/kg: Rattus norvegicus, ip. The procedure: Spontaneously hypertensive male rats were anesthetized with methoxyflurane and α-chloralose (120 mg./kg., i.v.). An aqueous solution of the compound of formula I to be tested was administered i.p. to the animal following a 15-20 minute equilibrium period. Systemic arterial blood pressure was measured from the right carotid artery via a Statham P23 ID pressure transducer and recorded on a Model R411 Beckman Dynograph recorder. Heart rate was recorded with a Beckman 9857B cardiotachometer triggered by the pulse pressure. Mean arterial pressure was calculated as the diastolic pressure plus one third of the pulse pressure. Antihypertensive responses were measured at the maximal reduction in blood pressure occurring within 30 minutes after drug administration as compared to the baseline measurements taken prior to administration of the compound. The effect on heart rate was determined at the same time the maximum reduction in blood pressure was seen and was also compared with the baseline heart rate prior to compound administration. The results in Table I are reported as the maximal reduction in blood pressure and the corresponding effect on heart rate for certain compounds of formula I. The results are the average of two or more experiments.

[1] abbreviates: heart rate at the time of maximum reduction in blood pressure vs pre-treatment baseline, minus = decrease, read-out: Effect on heart rate.
The mark [2] stands for this setting: maximal reduction in mean arterial blood pressure within 30 minutes of compound administration vs pre-treatment baseline, minus = reduction, read-out: Effect on blood pressure.
Setting [3] is: heart rate at the time of maximum reduction in blood pressure vs pre-treatment baseline, minus = decrease.
[4] abbreviates: maximal reduction in mean arterial blood pressure within 30 minutes of compound administration vs pre-treatment baseline, minus = reduction.

In the case of `COc1cc2c(cc1F)CC(N)=NC=C2` [Example 36, 2-Amino-8-fluoro-7-methoxy-1H-3-benzazepine hydrochloride], the change in vivo at 10 mg/kg is -8% under setting [1] and -31% under setting [2].
With `C=CCNC1=NC=Cc2cc(OC)c(OC)cc2C1` [Example 23, 2-Allylamino-7,8-dimethoxy-lH-3-benzazepine], the change in vivo at 10 mg/kg is -5% under setting [1] and -15% under setting [2].
The matching figures for `C=CCNC1=NC=Cc2ccccc2C1` [Example 20, 2-Allylamino-lE-3-benzazepine]: -15% and -20%.
The matching figures for `CCOc1cc2c(cc1OCC)CC(N)=NC=C2` [Example 14, 2-Amino-7,8-diethoxy-lH-3-benzazepine hydrochloride]: -8% and -18%.
On the same counts, the results for `CCNC1=NC=Cc2cc(OC)c(OC)cc2C1` [Example 22, 2-Ethylamino-7,8-dimethoxy-lH-3-benzazepine] are 2% and -13%.
Consider `NC1=NC=Cc2ccc([N+](=O)[O-])cc2C1` [Example 10, 2-Amino-8-nitro-lH-3-benzazepine], for which the change in vivo at 10 mg/kg under setting [1] was -22% and the change in vivo at 10 mg/kg under setting [2] was -55%.
As for `NC1=NC=Cc2ccc3c(c2C1)CCCC3` [Example 35, 2-amino-8,9,10,11-tetra-hydro-lH-naphth[1,2-d]azepine hydrochloride], the change in vivo at 10 mg/kg by setting is: under setting [1], -12%; under setting [2], -33%.
On the same counts, the results for `COc1cc(C)c(OC)c2c1CC(N)=NC=C2` [Example 33, 2-Amino-7-methyl-6,9-dimethoxy-lH-3-benzazepine hydrochloride] are -43% and -47%.
On the same counts, the results for `COc1cc2c(cc1OC)CC(NC(C)C)=NC=C2` [Example 15, 2-Isopropylamino-7,8-dimethoxy-lH-3-benzazepine hydrochloride] are -3% and -10%.
Turning to `CC(C)NC1=NC=Cc2ccccc2C1` [Example 21, 2-Isopropylamino-lH-3-benzazepine], the change in vivo at 10 mg/kg was -6% under setting [1] and -16% under setting [2].
As to `NC1=NC=Cc2cc3ccccc3cc2C1` [Example 3, 2-Amino-lH-naphth[2,3-d]azepine], the change in vivo at 10 mg/kg is -20% under setting [1] and -31% under setting [2].
As for `Cc1ccc(C)c2c1C=CN=C(N)C2` [Example 26, 2-Amino-6,9-dimethyl-lH-3-benzazepine hydrochloride], the change in vivo at 10 mg/kg under setting [2] is -44%.
Turning to `C1=Cc2ccccc2CC(NC2CC2)=N1` [Example 19, 2-Cyclopropylamino-lH-3-benzazepine], the change in vivo at 10 mg/kg runs as follows: under setting [1], -8%; under setting [2], -20%.
Turning to “2-Amino-7,8-dimethoxy-lH-3-benzazepine [Example 5]”, the “Effect on heart rate” value under setting [3] is recorded as -21.0%. In addition, under setting [4], the “Effect on blood pressure” value was -43.0%.
Take `COc1cc2c(cc1OC)C(C)C(N)=NC=C2` (stereo not drawn) [Example 13, 1-Methyl-2-amino-7,8-dimethoxy-1H-3-benzazepine hydrochloride]: the change in vivo at 10 mg/kg under setting [1] was -2% and the change in vivo at 10 mg/kg under setting [2] is -22%.
The matching figures for `CNC1=NC=Cc2ccccc2C1` [Example 16, 2-Methylamino-1H-3-benzazepine]: -9% and -8%.
As to `COc1cc2c(cc1OC)CC(NC1CC1)=NC=C2.Cl` [Example 12, 2-Cyclopropylamino-7,8-dimethoxy-lH-3-benzazepine hydrochloride], under setting [3], the “Effect on heart rate” value is -8.0%. Further, the “Effect on blood pressure” value under setting [4] is -25.0%.
For `NC1=NC=Cc2cc3c(cc2C1)OCO3` [Example 9, 2-Amino-7,8-(methylenedioxy)-lH-3-benzazepine hydrochloride], the change in vivo at 10 mg/kg runs as follows: under setting [1], -11%; under setting [2], -19%.
The matching figures for `Cc1cc2c(cc1C)CC(N)=NC=C2` [Example 2, 2-Amino-7,8-dimethyl-lH-3-benzazepine hydrochloride]: -21.7% and -46.7%.
On the same counts, the results for `COc1cc2c(cc1O)CC(N)=NC=C2` [Example 27, 2-Amino-7-methoxy-8-hydroxy-lE-3-benzazepine hydrochloride] are -12% and -29%.
Regarding `CCOc1cc2c(cc1OC)C=CN=C(N)C2` [Example 37, 2-Amino-8-ethoxy-7-methoxy-lH-3-benzazepine hydrochloride], the change in vivo at 10 mg/kg reads like this: under setting [1], -23%; under setting [2], -48%.
On the same counts, the results for `NC1=NC=Cc2cc3c(cc2C1)CCCC3` [Example 34, 2-Amino-7,8,9,10-tetrahydro-1H-naphth[2,3-d]-azepine hydrochloride] are -15% and -30%.
For the compound `NC1=NC=Cc2ccc3ccccc3c2C1` [Example 30, 2-Amino-1H-naphth[1,2-d]azepine hydrochloride], the change in vivo at 10 mg/kg under setting [1] was -6% and the change in vivo at 10 mg/kg under setting [2] was -37%.
As to `COc1ccc(OC)c2c1C=CN=C(N)C2` [Example 32, 2-Amino-6,9-dimethoxy-lH-3-benzazepine hydrochloride], the change in vivo at 10 mg/kg under setting [1] is -13% and the change in vivo at 10 mg/kg under setting [2] was -32%.
Turning to `COc1cc2c(cc1O)C=CN=C(N)C2` [Example 28, 2-Amino-7-hydroxy-8-methoxy-1H-3-benzazepine hydrochloride], the change in vivo at 10 mg/kg is, setting by setting: under setting [1], 0%; under setting [2], -11%.
“2-Amino-7,8-dimethoxy-lH-3-benzazepine hydrochloride [Example 6]”: the “Effect on heart rate” value under setting [3] is recorded as -15.0%. For the same compound, under setting [4], the “Effect on blood pressure” value was -56.0%.
As for `CCOc1cc2c(cc1OC)CC(NC1CC1)=NC=C2` [Example 25, 2-Cyclopropylamino-7-ethoxy-8-methoxy-lH-3-benzazepine hydrochloride], the change in vivo at 10 mg/kg was -6% under setting [1] and -9% under setting [2].
In the case of `CC(C)CNC1=NC=Cc2ccccc2C1` [Example 18, 2-Isobutylamino-lE-3-benzazepine], the change in vivo at 10 mg/kg is -7% under setting [1] and -17% under setting [2].
On the same counts, the results for `COc1cc2c(cc1C)CC(N)=NC=C2` [Example 8, 2-Amino-7-methoxy-8-methyl-1H-3-benzazepine hydrochloride] are -31% and -54%.
On the same counts, the results for `CNC1=NC=Cc2cc(OC)c(OC)cc2C1` [Example 11, 2-Methylamino-7,8-dimethoxy-lH-3-benzazepine] are -7% and -36%.
On the same counts, the results for `COc1ccc2c(c1)CC(N)=NC=C2` [Example 4, 2-Amino-8-methoxy-1H-3-benzazepine hydrochloride] are -23.5% and -29.5%.
Take `CCOc1cc2c(cc1OC)CC(N)=NC=C2` [Example 7, 2-Amino-7-ethoxy-8-methoxy-lH-3-benzazepine hydrochloride]: the change in vivo at 10 mg/kg under setting [1] is -3% and the change in vivo at 10 mg/kg under setting [2] was -36%.
As to `Cc1ccc2c(c1)CC(N)=NC=C2` [Example 24, 2-Amino-8-methyl-lH-3-benzazepine], the change in vivo at 10 mg/kg was -22% under setting [1] and -35% under setting [2].
Consider `CCC(C)NC1=NC=Cc2ccccc2C1` (stereo not drawn) [Example 17, 2-Sec-butylamino-lH-3-benzazepine], for which the change in vivo at 10 mg/kg runs as follows: under setting [1], -13%; under setting [2], -22%.
For `CCc1cc2c(cc1CC)CC(N)=NC=C2` [Example 1, 2-Amino-7,8-diethyl-1H-3-benzazepine hydrochloride], under setting [2], the change in vivo at 10 mg/kg is -24%.
Consider `NC1=NC=Cc2cc3c(cc2C1)CCC3` [Example 31, 2-Amino-1,7,8,9-tetrahydroindeno[5,6-d]-azepine hydrochloride], for which the change in vivo at 10 mg/kg was -16% under setting [1] and -40% under setting [2].
The matching figures for `C#CCNC1=NC=Cc2cc(OC)c(OC)cc2C1` [Example 29, 2-Propargylamino-7,8-dimethoxy-lH-3-benzazepine hydrochloride]: -11% and -29%.

The values are drawn from patent publication EP0116444A2, “Improvements in or relating to benzazepine derivatives” (ELI LILLY AND COMPANY, priority 1983, dated 1984).
